{"source": "patent US20090118310A1", "about": "“Activated Cdc42-associated kinase (ACK) as a therapeutic target for Ras-induced cancer” (UNIVERSITY OF MEDICINE AND DENTISTRY OF NEW JERSEY, priority 2005, published 2009)", "key": {"[1]": {"target": "T1, ACK-1 kinase (GST-ACKD, amino acids 101-441) (Homo sapiens, UniProt Q07912)", "T1 construct": "made in house; host or cells: Escherichia coli BL21 (pGEX-2TH vector)", "T1 sequence (Q07912 38-378 H250G)": "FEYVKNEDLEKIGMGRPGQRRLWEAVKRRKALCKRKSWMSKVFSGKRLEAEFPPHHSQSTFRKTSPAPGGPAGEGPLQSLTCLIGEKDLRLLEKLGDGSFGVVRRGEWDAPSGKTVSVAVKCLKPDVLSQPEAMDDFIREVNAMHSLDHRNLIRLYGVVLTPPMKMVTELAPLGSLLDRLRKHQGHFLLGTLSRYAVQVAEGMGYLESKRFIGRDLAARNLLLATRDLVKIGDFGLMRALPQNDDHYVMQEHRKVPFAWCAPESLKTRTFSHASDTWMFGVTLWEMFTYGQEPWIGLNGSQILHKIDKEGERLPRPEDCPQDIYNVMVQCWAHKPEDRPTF", "assay": "In vitro kinase assay of GST-ACKD with MBP as substrate", "format": "biochemical", "settings": "FIG. 4C dose response, FIG. 4D inhibitors at 200 nmol/L", "description": "Escherichia coli BL21 cells transformed with pGEX-ACKD were grown at 30° C. to early logarithmic phase and protein expression was induced by adding 0.1 mmol/L isopropyl-L-thio-β-D-galactopyranoside. After 3 hours of incubation, cells were harvested, resuspended in lysis buffer [50 mmol/L Tris (pH 7.5), 0.73 mol/L sucrose, 5 mmol/L MgCl2, 0.5% (v/v) NP40], and disrupted by sonication. Cells were centrifuged at 10,000×g for 30 minutes at 4° C. The supernatant was applied to the glutathione-Sepharose column equilibrated with WED buffer [20 mmol/L Tris (pH 7.5), 2 mmol/L MgCl2, 1 mmol/L DTT] followed by washing with WED buffer. GST-ACKD was eluted with 5 mmol/L glutathione solution in 50 mmol/L Tris (pH 9.6). The eluate was dialyzed in WED buffer overnight and concentrated on a sucrose gradient. The expected size of the fusion protein (GST-ACKD) was confirmed by SDS-PAGE (data not shown), and the protein was used for kinase assays as described below.\nThe purified GST-ACKD (˜5 μg per reaction) was incubated in kinase reaction buffer [50 mmol/L HEPES-KOH (pH 7.2), 10 mmol/L magnesium acetate, 5 mmol/L DTT] containing 7.5 μg MBP, 100 μmol/L ATP, and 4 μCi [γ-^33P]ATP for 10 minutes at 30° C. Reactions were stopped by addition of 5× Laemmli SDS sample buffer. Proteins were separated by SDS-PAGE, and radioactivity incorporated into the substrate was quantified by using the Kodak Imaging Station 2000R. For kinase inhibition experiments, GST-ACKD was preincubated with individual inhibitors in kinase buffer or kinase buffer alone (control) before the addition of MBP following the same protocol as described above. Experiments were done in triplicate.\nSeveral compounds were screened to examine their potency in inhibiting the kinase activity of ACK in vitro. […]\nDifferent kinase inhibitors were added to the ACK-1 kinase reaction as described above in General Procedures. Phosphorylation of MBP was determined by SDS-PAGE and autoradiography. The level of MBP phosphorylation was determined by scanning MBP bands using Kodak Imaging Station 2000R and plotted as arbitrary units. […]"}, "ACK-1": {"target": "T2, ACK-1 (Mus musculus, UniProt O54967)", "T2 construct": "endogenous in cells; host or cells: v-Ha-Ras-transformed NIH 3T3 cells (and parental NIH 3T3 in the siRNA experiment)", "T2 sequence (O54967 whole entry)": "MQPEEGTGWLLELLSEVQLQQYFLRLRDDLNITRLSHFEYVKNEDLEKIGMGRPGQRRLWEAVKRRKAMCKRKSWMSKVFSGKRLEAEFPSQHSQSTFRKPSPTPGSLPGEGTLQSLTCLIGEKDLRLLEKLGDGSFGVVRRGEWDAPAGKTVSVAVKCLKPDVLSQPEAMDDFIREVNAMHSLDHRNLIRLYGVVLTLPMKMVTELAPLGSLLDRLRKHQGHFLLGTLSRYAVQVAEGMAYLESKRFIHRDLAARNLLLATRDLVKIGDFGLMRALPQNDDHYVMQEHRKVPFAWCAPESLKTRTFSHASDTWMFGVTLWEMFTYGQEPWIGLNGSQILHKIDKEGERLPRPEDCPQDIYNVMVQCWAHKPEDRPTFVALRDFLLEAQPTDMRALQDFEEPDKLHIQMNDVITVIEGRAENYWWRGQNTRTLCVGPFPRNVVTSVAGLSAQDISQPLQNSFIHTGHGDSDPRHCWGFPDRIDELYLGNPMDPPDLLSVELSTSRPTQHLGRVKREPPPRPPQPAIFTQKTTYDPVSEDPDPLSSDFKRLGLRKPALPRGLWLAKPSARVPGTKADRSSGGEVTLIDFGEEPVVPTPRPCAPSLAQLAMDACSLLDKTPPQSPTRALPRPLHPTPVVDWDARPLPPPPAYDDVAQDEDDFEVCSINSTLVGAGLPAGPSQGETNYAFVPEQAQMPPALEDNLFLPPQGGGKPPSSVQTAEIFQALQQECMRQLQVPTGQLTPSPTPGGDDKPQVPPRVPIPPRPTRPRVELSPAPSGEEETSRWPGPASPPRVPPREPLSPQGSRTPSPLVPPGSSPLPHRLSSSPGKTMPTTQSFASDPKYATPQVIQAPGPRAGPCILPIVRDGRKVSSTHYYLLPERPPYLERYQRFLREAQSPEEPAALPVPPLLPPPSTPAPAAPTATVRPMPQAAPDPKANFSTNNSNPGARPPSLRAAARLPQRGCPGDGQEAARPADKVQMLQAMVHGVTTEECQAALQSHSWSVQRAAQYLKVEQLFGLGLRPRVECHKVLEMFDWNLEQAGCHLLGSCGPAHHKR", "assay": "ACK-1 autophosphorylation in v-Ha-Ras-transformed cells (immunoprecipitation, anti-phosphotyrosine Western blot)", "format": "cell-based", "settings": "25 μmol/L, 48 hours, FIG. 5A", "description": "For immunoprecipitation, cells (2×10^6 per sample) were lysed in a buffer containing 1% Triton X-100, 20 mmol/L HEPES (pH 7.4), 150 mmol/L NaCl, 10% glycerol, 1.5 mmol/L MgCl2, 1 mmol/L EGTA, 10 mmol/L sodium pyrophosphate, 0.2 mmol/L sodium orthovanadate, 50 mmol/L NaF, 0.5 mg/mL phenylmethylsulfonyl fluoride, and 0.5 μg/mL aprotinin. Each lysate was incubated with ACK-1 antibody (10 μg/sample) for 4 hours at 4° C. Protein A-Sepharose CL-4B (50 μL) was added to the lysate followed by additional incubation for 2 hours at 4° C. Sepharose beads were collected by centrifugation at 1,000×g for 5 minutes (Eppendorf microfuge). The pellets were washed thrice with lysis buffer using the same protocol. Protein bound to Sepharose beads was recovered in Laemmli SDS sample buffer. […]\nTo study the effects of ACK on cell proliferation, 2×10^4 cells per well were seeded into 24-well plates and cultured under standard cell culture conditions. […] Cell numbers were counted with a hemocytometer. […]\nThe effect of PD158780 and PD157432 on the phosphorylation of ACK-1 was investigated. v-Ha-Ras-transformed cells were cultured in DMEM containing 10% FCS. […] For growth inhibition studies, cells were trypsinized and counted every 24 hours. […]"}, "[2]": {"test_system": "v-Ha-Ras-transformed NIH 3T3 cells", "assay": "Growth of v-Ha-Ras-transformed cells treated with kinase inhibitors (cell counting)", "format": "cell-based", "settings": "kinase inhibitor added after overnight culture; cells counted (every 24 hours or after 48 hours)", "description": "To study the effects of ACK on cell proliferation, 2×10^4 cells per well were seeded into 24-well plates and cultured under standard cell culture conditions. After overnight culture, individual kinase inhibitors (at indicated concentration) or DMSO (control) were added to the culture. Cells were collected by trypsinization after 48 hours. Cell numbers were counted with a hemocytometer. To study ACK phosphorylation, cells were lysed with a buffer containing 1% Triton X-100, 20 mmol/L HEPES (pH 7.4), 150 mmol/L NaCl, 10% glycerol, 1.5 mmol/L MgCl2, 1 mmol/L EGTA, 10 mmol/L sodium pyrophosphate, 0.2 mmol/L sodium orthovanadate, 50 mmol/L NaF, 0.5 mg/mL phenylmethylsulfonyl fluoride, and 0.5 μg/mL aprotinin. Total protein (˜1 mg) was used for immunoprecipitation of ACK-1.\nThe effect of PD158780 and PD157432 on the phosphorylation of ACK-1 was investigated. v-Ha-Ras-transformed cells were cultured in DMEM containing 10% FCS. Cells were treated with solvent (DMSO), PD 158780 (25 μmol/L), or PD157432 (25 μmol/L) for 48 hours. Cells were incubated under standard cell culture conditions. […] For growth inhibition studies, cells were trypsinized and counted every 24 hours. […]\nThe effect of ST021169 and ST038325 on v-Ha-Ras-transformed NIH 3T3 cell growth was investigated. […] After 48 hours, the cells were trypsinized and counted with a hemocytometer. […]"}}, "note": "Entries after “also recorded” stand apart in the source; their conditions may differ."}
{"compound": "CNc1cc2c(Nc3cccc(Br)c3)ncnc2cn1", "note": "[PD158780]", "values": [{"measurement": "inhibition of kinase activity of ACK (MBP phosphorylation)", "setting": "[1]", "value": "inhibited ACK strongly and in a dose-dependent manner; also recorded: strongest inhibitory activity"}, {"measurement": "inhibition of ACK-1 autophosphorylation", "setting": "ACK-1", "value": "inhibited ACK-1 autophosphorylation to a much stronger extent than did PD157432"}, {"measurement": "inhibition of v-Ha-Ras-transformed NIH 3T3 cell growth", "setting": "[2]", "value": "inhibited in a dose-dependent manner"}]}
